Experimental data from US10172355B2, “Safened herbicidal compositions including 4-amino-3-chloro-5-fluoro-6-(4-chloro-2-fluoro-3-methoxyphenyl)pyridine-2-carboxylic acid or a derivative thereof for use in rice” (Dow AgroSciences LLC, priority 2012, dated 2019).

Tested on: ECHCG=Echinochloa crus-galli
Assay: In-water applied herbicides in paddy, visual injury of weed
Type: in vivo
Experimental: Weed seeds or nutlets of the desired test plant species were planted in puddled soil (mud) prepared by mixing a shredded, non-sterilized mineral soil (50.5 percent silt, 25.5 percent clay, and 24 percent sand, with a pH of about 7.6 and an organic matter content of about 2.9 percent) and water at a 1:1 volumetric ratio. The prepared mud was dispensed in 365 mL aliquots into 16-ounce (oz.) non-perforated plastic pots with a surface area of 86.59 square centimeters (cm^2) leaving a headspace of 3 centimeters (cm) in each pot. Rice seeds were planted in Sun Gro MetroMix® 306 planting mixture, which typically has a pH of 6.0 to 6.8 and an organic matter content of about 30 percent, in plastic plug trays. Seedlings at the second or third leaf stage of growth were transplanted into 860 mL of mud contained in 32-oz. non-perforated plastic pots with a surface area of 86.59 cm^2 4 days prior to herbicide application. The paddy was created by filling the headspace of the pots with 2.5 to 3 cm of water. When required to ensure good germination and healthy plants, a fungicide treatment and/or other chemical or physical treatment was applied. The plants were grown for 4-22 days in a greenhouse with an approximate 14 h photoperiod which was maintained at about 29′C during the day and about 26° C. during the night. Nutrients were added as Osmocote® (17:6:10, N:P:K+minor nutrients) at 2 g per 16-oz. pot and 4 g per 32-oz. pot. Water was added on a regular basis to maintain the paddy flood, and supplemental lighting was provided with overhead metal halide 1000-Watt lamps as necessary. The plants were employed for testing when they reached the second or third true leaf stage.
Treatments consisted of the acid or esters of 4-amino-3-chloro-5-fluoro-6-(4-chloro-2-fluoro-3-methoxy-phenyl)pyridine-2-carboxylic acid (compound A) and various safeners alone and in combination. Forms of compound A were applied on an acid equivalent basis. Safener components were applied on an active ingredient or acid equivalent basis depending on the compound.
Treatment requirements for each compound or herbicidal component were calculated based upon the rates being tested, the concentration of active ingredient or acid equivalent in the formulation, an application volume of 2 mL per component per pot, and an application area of 86.59 cm^2 per pot.
For formulated compounds, a measured amount was placed in an individual 100 or 200 mL glass vial and was dissolved in a volume of 1.25% (v/v) Agri-Dex® crop oil concentrate to obtain application solutions.
For technical grade compounds, a weighed amount can be placed in an individual 100 to 200 mL glass vial and dissolved in a volume of acetone to obtain concentrated stock solutions. […] The concentrated stock solutions obtained can be diluted with an equivalent volume of an aqueous mixture containing 2.5% (v/v) crop oil concentrate so that the final application solutions contain 1.25% (v/v) crop oil concentrate.
Applications were made by injecting with a pipetter appropriate amounts of the application solutions, individually and sequentially, into the aqueous layer of the paddy. Control plants were treated in the same manner with the solvent blank. Applications were made so that all treated plant material received the same concentrations of acetone and crop oil concentrate.
The treated plants and control plants were placed in a greenhouse as described above and water was added as needed to maintain a paddy flood. After approximately 3 weeks the condition of the test plants as compared with that of the untreated plants was determined visually and scored on a scale of 0 to 100 percent where 0 corresponds to no injury or growth inhibition and 100 corresponds to complete kill.
Some of the safener-herbicide combinations tested, application rates and ratios employed, plant species tested, and results are given in Tables 16-17. […]

| SMILES | Mean Visual Injury (%) - 21 DAA ECHCG (8.75 g ae/ha) [%] | Mean Visual Injury (%) - 21 DAA ECHCG (17.5 g ae/ha) [%] | Mean Visual Injury (%) - 21 DAA ECHCG (35 g ae/ha) [%] | Mean Visual Injury (%) - 21 DAA ECHCG (70 g ae/ha) [%] | Mean Visual Injury (%) - 21 DAA ECHCG (140 g ae/ha) [%] |
| --- | --- | --- | --- | --- | --- |
| COc1c(Cl)ccc(-c2nc(C(=O)O)c(Cl)c(N)c2F)c1F [Acid, 4-amino-3-chloro-6-(4-chloro-2-fluoro-3-methoxyphenyl)-5-fluoropyridine-2-carboxylic acid] | 0 | 0 | 10 | 63 | 95 |
| COc1c(Cl)ccc(-c2nc(C(=O)OCc3ccccc3)c(Cl)c(N)c2F)c1F [Benzyl] | 23 | 43 | 81 | 100 | 100 |
